According to patent US20100081613A1, “METHODS AND COMPOSITIONS FOR ENHANCING MEMORY” (THE TRUSTEES OF COLUMBIA UNIVERSITY IN THE CITY OF NEW YORK, priority 2006, published 2010):

What was measured:
[1] = target: rodent Aβ42 (Mus musculus; Rattus norvegicus); experiment: cell-based or functional assay
hippocampal slices [2] = test system: hippocampal slices
hippocampal slices [3] = experiment: Paired pulse facilitation (PPF) at the CA3-CA1 connection; assay type: cell-based, mouse

In the case of anti-rodent Aβ monoclonal antibody m3.2, the contextual fear conditioning, freezing 24 hrs after training, m3.2 mAb 1 µg in 1 µl into dorsal hippocampi (% of freezing) [1] is reported as 16.8.

For α-bungarotoxin [α-BgTx], the PTP (hippocampal slices [2]) was “does not affect PTP”.

`CNC1(C)C2CCC(C2)C1(C)C` (centres unmarked) [MCL, mecamylamine] was tested, and the PPF (hippocampal slices [3]; 20 ms interval, MCL 3 μM for 20 min plus Aβ42) was 138.18±22.01 % of facilitation, the PPF (hippocampal slices [3]; 30 ms interval, MCL 3 μM for 20 min plus Aβ42) was 158.58±16.79 % of facilitation and the PPF (hippocampal slices [3]; 40 ms interval, MCL 3 μM for 20 min plus Aβ42) was 176.71±17.51 % of facilitation. For the same molecule, the PPF (hippocampal slices [3]; 50 ms interval, MCL 3 μM for 20 min plus Aβ42) was 197.49±22.30 % of facilitation, the PPF (hippocampal slices [3]; MCL 3 μM for 20 min alone) was 214.53±20.85% and the PTP (hippocampal slices [2]) was “does not affect PTP”.
